Experimental data from patent US20030129255A1, “Colloidal silver suspension for treating skin problems in tropical and decorative fish” (priority 2002, published 2003).

Test system: nitrifying bacteria
Procedure: In accordance with the present invention, a method of treating skin problems in fish comprises adding a teaspoon (5 ml) of a suspension of colloidal silver in which the concentration of silver ranges between 6 ppm and 12 ppm (parts per million) to 10 gallons of water in an aquarium every other day and then changing 50% of the water once a week, so that the water to which the fish to be treated are exposed has a silver concentration initially in the range of 0.77 ppb to 1.5 ppb (parts per billion).

## colloidal silver
  survival of nitrifying bacteria: some nitrifying bacteria can survive this treatment
